Tests used:
Format in all cases: functional
[1] = Antioxidant activity assessed as hydrogen peroxide radical scavenging activity after 20 mins by spectrophotometry relative to control; design: concentration or dose not given beside the values
[2] = system: Escherichia coli; test: Antibacterial activity against Escherichia coli ATCC 25922 at 1000 ug/ml after 24 hrs by cup plate method; details: ATCC 25922, 24 h, read-out: IZ
[3] = system: Staphylococcus aureus; test: Antibacterial activity against Staphylococcus aureus ATCC 25923 at 1000 ug/ml after 24 hrs by cup plate method; details: ATCC 25923, 24 h, read-out: IZ
[4] = Antioxidant activity assessed as hydrogen peroxide radical scavenging activity after 40 mins by spectrophotometry relative to control; design: concentration or dose not given beside the values
[5] = system: Radical scavenging activity; test: Antioxidant activity assessed as DPPH radical scavenging activity at 50 ug by spectrophotometry relative to control
[6] = Antioxidant activity assessed as hydrogen peroxide radical scavenging activity after 30 mins by spectrophotometry relative to control; design: concentration or dose not given beside the values
[7] = Antioxidant activity assessed as hydrogen peroxide radical scavenging activity after 10 mins by spectrophotometry relative to control; design: concentration or dose not given beside the values
[8] = system: Radical scavenging activity; test: Antioxidant activity assessed as DPPH radical scavenging activity at 1000 ug by spectrophotometry relative to control
[9] = system: Candida albicans; test: Antifungal activity against Candida albicans ATCC 10231 at 1000 ug/ml after 24 hrs by cup plate method; details: ATCC 10231, 24 h, read-out: IZ
[10] = Antioxidant activity assessed as hydrogen peroxide radical scavenging activity by spectrophotometry relative to control; design: concentration or dose not given beside the values
[11] = system: Radical scavenging activity; test: Antioxidant activity assessed as DPPH radical scavenging activity at 500 ug by spectrophotometry relative to control

COc1cc(C(c2c(-c3ccccc3)[nH]c3ccccc23)c2c(-c3ccccc3)[nH]c3ccccc23)cc(Br)c1O
Activity [1]: 74% | zone of inhibition at 1000 µg/mL [2]: 24 mm | zone of inhibition at 1000 µg/mL [3]: 22 mm | Activity [4]: 65% | Activity [5]: 27% | Activity [6]: 71% | Activity [7]: 81% | Activity [8]: 70% | zone of inhibition at 1000 µg/mL [9]: 26 mm | Activity [10]: 82% | Activity [11]: 64%

O=C1O[C@H]([C@@H](O)CO)C(O)=C1O
Activity [5]: 96% | Activity [8]: 99% | Activity [11]: 97%

Cc1ccc2nc(-c3cccc(Br)c3)cc(-c3ccccc3)c2c1
zone of inhibition at 1000 µg/mL [2]: 22 mm | zone of inhibition at 1000 µg/mL [3]: 24 mm | zone of inhibition at 1000 µg/mL [9]: 21 mm

Brc1cc2c(cc1C(c1c(-c3ccccc3)[nH]c3ccccc13)c1c(-c3ccccc3)[nH]c3ccccc13)OCO2
Activity [1]: 39% | zone of inhibition at 1000 µg/mL [2]: 23 mm | zone of inhibition at 1000 µg/mL [3]: 25 mm | Activity [4]: 21% | Activity [5]: 10% | Activity [6]: 30% | Activity [7]: 43% | Activity [8]: 42% | zone of inhibition at 1000 µg/mL [9]: 24 mm | Activity [10]: 57% | Activity [11]: 23%

Clc1nc2ccccc2cc1C(c1c(-c2ccccc2)[nH]c2ccccc12)c1c(-c2ccccc2)[nH]c2ccccc12
Activity [1]: 80% | zone of inhibition at 1000 µg/mL [2]: 15 mm | zone of inhibition at 1000 µg/mL [3]: 18 mm | Activity [4]: 68% | Activity [5]: 2% | Activity [6]: 73% | Activity [7]: 83% | Activity [8]: 35% | zone of inhibition at 1000 µg/mL [9]: 18 mm | Activity [10]: 84% | Activity [11]: 12%

c1ccc(-c2[nH]c3ccccc3c2C(c2cccc3ccccc23)c2c(-c3ccccc3)[nH]c3ccccc23)cc1
Activity [1]: 82% | zone of inhibition at 1000 µg/mL [2]: 16 mm | zone of inhibition at 1000 µg/mL [3]: 23 mm | Activity [4]: 71% | Activity [5]: 25% | Activity [6]: 77% | Activity [7]: 84% | Activity [8]: 76% | zone of inhibition at 1000 µg/mL [9]: 10 mm | Activity [10]: 93% | Activity [11]: 58%

COc1cccc(-c2cc(-c3ccccc3)c3ccccc3n2)c1
zone of inhibition at 1000 µg/mL [2]: 23 mm | zone of inhibition at 1000 µg/mL [3]: 21 mm | zone of inhibition at 1000 µg/mL [9]: 14 mm

COc1cc(Br)c(C(c2c(-c3ccccc3)[nH]c3ccccc23)c2c(-c3ccccc3)[nH]c3ccccc23)cc1OC
Activity [1]: 74% | zone of inhibition at 1000 µg/mL [2]: 14 mm | zone of inhibition at 1000 µg/mL [3]: 12 mm | Activity [4]: 69% | Activity [5]: 21% | Activity [6]: 72% | Activity [7]: 85% | Activity [8]: 69% | zone of inhibition at 1000 µg/mL [9]: 16 mm | Activity [10]: 86% | Activity [11]: 52%

Clc1ccc(-c2nn(-c3ccccc3)cc2C(c2c(-c3ccccc3)[nH]c3ccccc23)c2c(-c3ccccc3)[nH]c3ccccc23)cc1
Activity [1]: 81% | zone of inhibition at 1000 µg/mL [2]: 15 mm | zone of inhibition at 1000 µg/mL [3]: 19 mm | Activity [4]: 79% | Activity [5]: 21% | Activity [6]: 80% | Activity [7]: 82% | Activity [8]: 87% | zone of inhibition at 1000 µg/mL [9]: 12 mm | Activity [10]: 83% | Activity [11]: 65%

c1ccc(-c2cc(-c3ccccc3)c3ccccc3n2)cc1
zone of inhibition at 1000 µg/mL [2]: 17 mm | zone of inhibition at 1000 µg/mL [3]: 18 mm | zone of inhibition at 1000 µg/mL [9]: 13 mm

CCCCc1cc(-c2ccccc2)c2ccccc2n1
zone of inhibition at 1000 µg/mL [2]: 19 mm | zone of inhibition at 1000 µg/mL [3]: 20 mm | zone of inhibition at 1000 µg/mL [9]: 15 mm

Cc1ccc(-c2cc(-c3ccccc3)c3cc(Cl)ccc3n2)cc1
zone of inhibition at 1000 µg/mL [2]: 22 mm | zone of inhibition at 1000 µg/mL [3]: 22 mm | zone of inhibition at 1000 µg/mL [9]: 23 mm

CCn1c2ccccc2c2cc(C(c3c(-c4ccccc4)[nH]c4ccccc34)c3c(-c4ccccc4)[nH]c4ccccc34)ccc21
Activity [1]: 82% | zone of inhibition at 1000 µg/mL [2]: 23 mm | zone of inhibition at 1000 µg/mL [3]: 24 mm | Activity [4]: 65% | Activity [5]: 15% | Activity [6]: 75% | Activity [7]: 80% | Activity [8]: 73% | zone of inhibition at 1000 µg/mL [9]: 24 mm | Activity [10]: 85% | Activity [11]: 42%

Cc1cc(C(C)(C)C)c(O)c(C(C)(C)C)c1
Activity [1]: 83% | Activity [4]: 80% | Activity [6]: 82% | Activity [7]: 86% | Activity [10]: 92%

C[C@@H]1[C@H](O)[C@@H](C)/C=C/C=C/C=C/C=C/C=C/C=C/C=C/[C@H](O[C@@H]2O[C@H](C)[C@@H](O)[C@H](N)[C@@H]2O)C[C@@H]2O[C@](O)(C[C@@H](O)C[C@@H](O)[C@H](O)CC[C@@H](O)C[C@@H](O)CC(=O)O[C@H]1C)C[C@H](O)[C@H]2C(=O)O [AMPHOTERICIN B]
zone of inhibition at 1000 µg/mL [9]: 20 mm

Cc1cc(-c2ccccc2)nc2ccccc12
zone of inhibition at 1000 µg/mL [2]: 20 mm | zone of inhibition at 1000 µg/mL [3]: 14 mm | zone of inhibition at 1000 µg/mL [9]: 16 mm

Brc1cccc(-c2cc(-c3ccccc3)c3ccccc3n2)c1
zone of inhibition at 1000 µg/mL [2]: 12 mm | zone of inhibition at 1000 µg/mL [3]: 14 mm | zone of inhibition at 1000 µg/mL [9]: 10 mm

O=C(O)c1ccc(C(c2c(-c3ccccc3)[nH]c3ccccc23)c2c(-c3ccccc3)[nH]c3ccccc23)cc1
Activity [1]: 45% | zone of inhibition at 1000 µg/mL [2]: 19 mm | zone of inhibition at 1000 µg/mL [3]: 24 mm | Activity [4]: 24% | Activity [5]: 17% | Activity [6]: 35% | Activity [7]: 45% | Activity [8]: 80% | zone of inhibition at 1000 µg/mL [9]: 16 mm | Activity [10]: 60% | Activity [11]: 48%

Clc1ccc2nc(-c3ccccc3)cc(-c3ccccc3)c2c1
zone of inhibition at 1000 µg/mL [2]: 18 mm | zone of inhibition at 1000 µg/mL [3]: 21 mm | zone of inhibition at 1000 µg/mL [9]: 16 mm

Cc1ccc(-c2cc(-c3ccccc3)c3ccccc3n2)cc1
zone of inhibition at 1000 µg/mL [2]: 17 mm | zone of inhibition at 1000 µg/mL [3]: 24 mm | zone of inhibition at 1000 µg/mL [9]: 19 mm

Cc1ccccc1-c1cc(-c2ccccc2)c2ccccc2n1
zone of inhibition at 1000 µg/mL [2]: 18 mm | zone of inhibition at 1000 µg/mL [3]: 15 mm | zone of inhibition at 1000 µg/mL [9]: 15 mm

c1ccc(-c2ccc(C(c3c(-c4ccccc4)[nH]c4ccccc34)c3c(-c4ccccc4)[nH]c4ccccc34)cc2)cc1
Activity [1]: 75% | zone of inhibition at 1000 µg/mL [2]: 26 mm | zone of inhibition at 1000 µg/mL [3]: 26 mm | Activity [4]: 59% | Activity [5]: 22% | Activity [6]: 70% | Activity [7]: 83% | Activity [8]: 75% | zone of inhibition at 1000 µg/mL [9]: 25 mm | Activity [10]: 87% | Activity [11]: 55%

Cn1c(C(c2c(-c3ccccc3)[nH]c3ccccc23)c2c(-c3ccccc3)[nH]c3ccccc23)cc2ccccc21
Activity [1]: 21% | zone of inhibition at 1000 µg/mL [2]: 16 mm | zone of inhibition at 1000 µg/mL [3]: 13 mm | Activity [4]: 16% | Activity [5]: 19% | Activity [6]: 20% | Activity [7]: 35% | Activity [8]: 76% | zone of inhibition at 1000 µg/mL [9]: 14 mm | Activity [10]: 43% | Activity [11]: 63%

c1ccc(-c2[nH]c3ccccc3c2C(c2ccc3c(c2)-c2ccccc2C3)c2c(-c3ccccc3)[nH]c3ccccc23)cc1
Activity [1]: 76% | zone of inhibition at 1000 µg/mL [2]: 18 mm | zone of inhibition at 1000 µg/mL [3]: 24 mm | Activity [4]: 70% | Activity [5]: 19% | Activity [6]: 73% | Activity [7]: 85% | Activity [8]: 85% | zone of inhibition at 1000 µg/mL [9]: 18 mm | Activity [10]: 88% | Activity [11]: 66%

CCCCCc1ccc(-c2cc(C)c3ccccc3n2)cc1
zone of inhibition at 1000 µg/mL [2]: 18 mm | zone of inhibition at 1000 µg/mL [3]: 21 mm | zone of inhibition at 1000 µg/mL [9]: 18 mm

c1ccc(-c2cc(-c3ccccn3)nc3ccccc23)cc1
zone of inhibition at 1000 µg/mL [2]: 18 mm | zone of inhibition at 1000 µg/mL [3]: 23 mm | zone of inhibition at 1000 µg/mL [9]: 18 mm

Reference: ChEMBL document CHEMBL1287786, “Synthesis, antimicrobial and antioxidant evaluation of quinolines and bis(indolyl)methanes” (2010)
